Measurements from US10857163B1, “Compositions that preferentially potentiate subtypes of GABAA receptors and methods of use thereof” (priority 2019, dated 2020).

Key:
[1] = biological target: T1, α1β1γ2 GABAA receptor (Homo sapiens, UniProt P14867+P18505+P18507); test: FLIPR modulation of GABAA receptor subtype in expressing cells; assay type: cell-based; settings: cells exposed to GABA plus compound, — = value not measurable
T1 construct: expressed in transfected cells
Protocol: (§1) Cells expressing the indicated GABAA receptor subtype were exposed to gamma-aminobutyric acid in the presence of varying concentrations of either CV-10155 or SPNC-019, calcium flux was measured using a fluorometric imaging plate reader (FLIPR), and EC50 values for compounds were determined.

[2] = biological target: T2, α1β2γ2 GABAA receptor (Homo sapiens, UniProt P14867+P18507+P47870); test: as above; assay type: cell-based; settings: cells exposed to GABA plus compound, — = value not measurable
T2 construct: expressed in transfected cells
T2 sequence (P14867 28-456): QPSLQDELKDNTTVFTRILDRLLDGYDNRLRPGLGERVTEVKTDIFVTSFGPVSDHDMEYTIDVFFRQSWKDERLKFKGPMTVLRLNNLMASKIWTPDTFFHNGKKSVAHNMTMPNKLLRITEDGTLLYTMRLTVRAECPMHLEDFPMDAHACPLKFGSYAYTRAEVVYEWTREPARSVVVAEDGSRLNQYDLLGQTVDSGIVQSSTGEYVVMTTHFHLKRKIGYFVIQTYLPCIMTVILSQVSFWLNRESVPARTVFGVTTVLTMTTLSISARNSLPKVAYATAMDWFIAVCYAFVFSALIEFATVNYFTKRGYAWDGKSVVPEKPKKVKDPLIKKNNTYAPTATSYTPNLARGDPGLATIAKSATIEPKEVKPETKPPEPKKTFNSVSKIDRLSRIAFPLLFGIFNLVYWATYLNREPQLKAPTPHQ
T2 sequence (P47870 25-512 limits assumed): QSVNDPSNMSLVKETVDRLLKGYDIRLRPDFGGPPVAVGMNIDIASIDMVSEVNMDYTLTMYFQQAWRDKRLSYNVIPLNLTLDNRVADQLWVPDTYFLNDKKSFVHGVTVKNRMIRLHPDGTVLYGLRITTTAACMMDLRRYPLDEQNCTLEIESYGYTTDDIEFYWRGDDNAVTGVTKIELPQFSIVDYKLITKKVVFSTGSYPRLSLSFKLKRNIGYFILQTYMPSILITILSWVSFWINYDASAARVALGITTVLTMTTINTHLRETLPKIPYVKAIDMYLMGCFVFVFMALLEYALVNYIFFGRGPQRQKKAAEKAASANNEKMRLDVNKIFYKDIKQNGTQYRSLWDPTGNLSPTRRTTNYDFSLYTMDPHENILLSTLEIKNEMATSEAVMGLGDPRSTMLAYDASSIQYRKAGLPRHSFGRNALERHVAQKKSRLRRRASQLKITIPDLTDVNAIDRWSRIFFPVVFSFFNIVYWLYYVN
T2 sequence (P18507 40-475): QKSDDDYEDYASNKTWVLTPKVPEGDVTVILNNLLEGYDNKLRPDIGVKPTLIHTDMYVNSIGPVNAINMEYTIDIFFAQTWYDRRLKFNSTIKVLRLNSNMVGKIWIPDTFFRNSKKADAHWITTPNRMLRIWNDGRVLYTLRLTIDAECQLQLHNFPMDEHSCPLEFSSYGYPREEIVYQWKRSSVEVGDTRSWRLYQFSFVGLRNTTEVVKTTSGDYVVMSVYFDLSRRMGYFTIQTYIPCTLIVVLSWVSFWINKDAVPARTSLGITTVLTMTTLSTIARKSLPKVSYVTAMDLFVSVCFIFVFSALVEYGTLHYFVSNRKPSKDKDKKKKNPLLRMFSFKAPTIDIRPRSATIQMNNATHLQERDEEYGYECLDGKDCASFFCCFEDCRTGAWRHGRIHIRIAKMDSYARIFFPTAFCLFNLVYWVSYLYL
Protocol: as §1

[3] = biological target: T3, α1β3γ2 GABAA receptor (Homo sapiens, UniProt P14867+P18507+P28472); test: as above; assay type: cell-based; settings: cells exposed to GABA plus compound, — = value not measurable
T3 construct: expressed in transfected cells
T3 sequence (P14867 28-456): as the sequence (P14867 28-456) above
T3 sequence (P28472 26-473): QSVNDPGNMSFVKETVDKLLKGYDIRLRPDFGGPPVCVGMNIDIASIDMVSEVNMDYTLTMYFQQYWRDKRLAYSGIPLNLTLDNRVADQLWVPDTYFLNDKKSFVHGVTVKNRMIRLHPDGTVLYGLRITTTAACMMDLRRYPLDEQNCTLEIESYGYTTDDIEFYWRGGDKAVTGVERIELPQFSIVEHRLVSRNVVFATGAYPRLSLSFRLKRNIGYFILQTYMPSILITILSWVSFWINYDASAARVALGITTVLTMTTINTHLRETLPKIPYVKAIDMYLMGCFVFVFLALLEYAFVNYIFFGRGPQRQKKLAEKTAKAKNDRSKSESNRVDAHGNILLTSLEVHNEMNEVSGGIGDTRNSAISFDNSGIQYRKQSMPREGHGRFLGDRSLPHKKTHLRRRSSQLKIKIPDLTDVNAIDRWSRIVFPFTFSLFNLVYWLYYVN
T3 sequence (P18507 40-475): as the sequence (P18507 40-475) above
Protocol: as §1

[4] = biological target: T4, α2β1γ2 GABAA receptor (Homo sapiens, UniProt P18505+P18507+P47869); test: as above; assay type: cell-based; settings: cells exposed to GABA plus compound, — = value not measurable
T4 construct: expressed in transfected cells
Protocol: as §1

[5] = biological target: T5, α2β2γ2 GABAA receptor (Homo sapiens, UniProt P18507+P47869+P47870); test: as above; assay type: cell-based; settings: cells exposed to GABA plus compound, — = value not measurable
T5 construct: expressed in transfected cells
Protocol: as §1

[6] = biological target: T6, α2β3γ2 GABAA receptor (Homo sapiens, UniProt P18507+P28472+P47869); test: as above; assay type: cell-based; settings: cells exposed to GABA plus compound, — = value not measurable
T6 construct: expressed in transfected cells
Protocol: as §1

[7] = biological target: T7, α3β1γ2 GABAA receptor (Homo sapiens, UniProt P18505+P18507+P34903); test: as above; assay type: cell-based; settings: cells exposed to GABA plus compound, — = value not measurable
T7 construct: expressed in transfected cells
Protocol: as §1

[8] = biological target: T8, α3β2γ2 GABAA receptor (Homo sapiens, UniProt P18507+P34903+P47870); test: as above; assay type: cell-based; settings: cells exposed to GABA plus compound, — = value not measurable
T8 construct: expressed in transfected cells
Protocol: as §1

[9] = biological target: T9, α3β3γ2 GABAA receptor (Homo sapiens, UniProt P18507+P28472+P34903); test: as above; assay type: cell-based; settings: cells exposed to GABA plus compound, — = value not measurable
T9 construct: expressed in transfected cells
Protocol: as §1

[10] = biological target: T10, α4β1γ2 GABAA receptor (Homo sapiens, UniProt P18505+P18507+P48169); test: as above; assay type: cell-based; settings: cells exposed to GABA plus compound, — = value not measurable
T10 construct: expressed in transfected cells
Protocol: as §1

[11] = biological target: T11, α4β3γ2 GABAA receptor (Homo sapiens, UniProt P18507+P28472+P48169); test: as above; assay type: cell-based; settings: cells exposed to GABA plus compound, — = value not measurable
T11 construct: expressed in transfected cells
Protocol: as §1

[12] = biological target: T12, α5β1γ2 GABAA receptor (Homo sapiens, UniProt P18505+P18507+P31644); test: as above; assay type: cell-based; settings: cells exposed to GABA plus compound, — = value not measurable
T12 construct: expressed in transfected cells
T12 sequence (P31644 32-462): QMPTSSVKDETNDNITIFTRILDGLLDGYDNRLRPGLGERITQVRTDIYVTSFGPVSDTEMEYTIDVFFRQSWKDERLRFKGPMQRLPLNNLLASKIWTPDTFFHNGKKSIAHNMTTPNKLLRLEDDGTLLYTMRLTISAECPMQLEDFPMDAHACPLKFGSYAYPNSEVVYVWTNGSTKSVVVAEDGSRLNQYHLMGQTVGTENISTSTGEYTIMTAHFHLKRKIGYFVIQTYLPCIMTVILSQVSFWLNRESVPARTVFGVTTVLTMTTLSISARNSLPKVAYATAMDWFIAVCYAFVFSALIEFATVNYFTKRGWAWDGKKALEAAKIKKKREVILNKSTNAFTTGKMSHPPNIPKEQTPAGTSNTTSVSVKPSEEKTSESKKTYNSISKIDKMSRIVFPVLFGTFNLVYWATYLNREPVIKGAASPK
T12 sequence (P18505 26-474): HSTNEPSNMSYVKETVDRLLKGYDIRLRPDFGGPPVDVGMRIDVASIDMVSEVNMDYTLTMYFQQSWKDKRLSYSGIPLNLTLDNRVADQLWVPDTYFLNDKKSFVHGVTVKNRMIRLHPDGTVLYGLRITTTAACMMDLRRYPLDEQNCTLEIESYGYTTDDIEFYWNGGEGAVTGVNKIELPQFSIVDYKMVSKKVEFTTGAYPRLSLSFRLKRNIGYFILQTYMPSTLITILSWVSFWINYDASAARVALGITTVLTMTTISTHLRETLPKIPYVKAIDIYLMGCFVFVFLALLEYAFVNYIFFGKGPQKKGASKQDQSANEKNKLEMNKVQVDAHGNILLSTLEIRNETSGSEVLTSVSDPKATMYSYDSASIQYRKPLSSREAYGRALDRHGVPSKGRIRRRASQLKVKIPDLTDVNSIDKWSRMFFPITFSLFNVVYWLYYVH
T12 sequence (P18507 40-475): as the sequence (P18507 40-475) above
Protocol: as §1

[13] = biological target: T13, α5β2γ2 GABAA receptor (Homo sapiens, UniProt P18507+P31644+P47870); test: as above; assay type: cell-based; settings: cells exposed to GABA plus compound, — = value not measurable
T13 construct: expressed in transfected cells
T13 sequence (P31644 32-462): as the sequence (P31644 32-462) above
T13 sequence (P47870 25-512 limits assumed): as the sequence (P47870 25-512 limits assumed) above
T13 sequence (P18507 40-475): as the sequence (P18507 40-475) above
Protocol: as §1

[14] = biological target: T14, α5β3γ2 GABAA receptor (Homo sapiens, UniProt P18507+P28472+P31644); test: as above; assay type: cell-based; settings: cells exposed to GABA plus compound, — = value not measurable
T14 construct: expressed in transfected cells
T14 sequence (P31644 32-462): as the sequence (P31644 32-462) above
T14 sequence (P28472 26-473): as the sequence (P28472 26-473) above
T14 sequence (P18507 40-475): as the sequence (P18507 40-475) above
Protocol: as §1

[15] = biological target: T15, α6β1γ2 GABAA receptor (Homo sapiens, UniProt P18505+P18507+Q16445); test: as above; assay type: cell-based; settings: cells exposed to GABA plus compound, — = value not measurable
T15 construct: expressed in transfected cells
Protocol: as §1

[16] = biological target: T16, α6β2γ2 GABAA receptor (Homo sapiens, UniProt P18507+P47870+Q16445); test: as above; assay type: cell-based; settings: cells exposed to GABA plus compound, — = value not measurable
T16 construct: expressed in transfected cells
T16 sequence (Q16445 20-453): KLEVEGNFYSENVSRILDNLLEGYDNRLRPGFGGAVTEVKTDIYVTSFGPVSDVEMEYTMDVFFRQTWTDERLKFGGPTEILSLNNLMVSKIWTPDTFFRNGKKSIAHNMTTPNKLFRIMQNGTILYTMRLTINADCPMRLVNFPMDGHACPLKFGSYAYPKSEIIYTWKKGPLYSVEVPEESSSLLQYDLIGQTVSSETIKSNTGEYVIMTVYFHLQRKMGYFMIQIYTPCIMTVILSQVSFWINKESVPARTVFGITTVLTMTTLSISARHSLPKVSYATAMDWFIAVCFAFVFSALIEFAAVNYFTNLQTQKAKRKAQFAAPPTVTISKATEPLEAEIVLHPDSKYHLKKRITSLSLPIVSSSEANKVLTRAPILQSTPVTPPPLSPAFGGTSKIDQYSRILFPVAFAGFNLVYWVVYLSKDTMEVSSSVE
T16 sequence (P47870 25-512 limits assumed): as the sequence (P47870 25-512 limits assumed) above
T16 sequence (P18507 40-475): as the sequence (P18507 40-475) above
Protocol: as §1

[17] = biological target: T17, α6β3γ2 GABAA receptor (Homo sapiens, UniProt P18507+P28472+Q16445); test: as above; assay type: cell-based; settings: cells exposed to GABA plus compound, — = value not measurable
T17 construct: expressed in transfected cells
T17 sequence (Q16445 20-453): as the sequence (Q16445 20-453) above
T17 sequence (P28472 26-473): as the sequence (P28472 26-473) above
T17 sequence (P18507 40-475): as the sequence (P18507 40-475) above
Protocol: as §1

[18] = tested on: GABAA receptor subtypes; test: FLIPR panel of 18 GABAA receptor subtypes, overall statement; assay type: cell-based; settings: 18 subtypes
Protocol: as §1
The only structural difference between CV-10155 and SPNC-019 is the stereochemical configuration of the hydroxyl and methyl groups attached to the carbon atom at position 3 of the steroid core. […] The results further indicate that the isomeric purity of neurosteroid compositions greatly impacts the utility of such compositions as therapeutic agents.

[19] = biological target: T18, α4β3δ GABAA receptor (Homo sapiens, UniProt O14764+P28472+P48169); test: FLIPR modulation of GABAA receptor subtype in expressing cells; assay type: cell-based; set-up: expressed in transfected cells
T18 sequence (P48169 36-554): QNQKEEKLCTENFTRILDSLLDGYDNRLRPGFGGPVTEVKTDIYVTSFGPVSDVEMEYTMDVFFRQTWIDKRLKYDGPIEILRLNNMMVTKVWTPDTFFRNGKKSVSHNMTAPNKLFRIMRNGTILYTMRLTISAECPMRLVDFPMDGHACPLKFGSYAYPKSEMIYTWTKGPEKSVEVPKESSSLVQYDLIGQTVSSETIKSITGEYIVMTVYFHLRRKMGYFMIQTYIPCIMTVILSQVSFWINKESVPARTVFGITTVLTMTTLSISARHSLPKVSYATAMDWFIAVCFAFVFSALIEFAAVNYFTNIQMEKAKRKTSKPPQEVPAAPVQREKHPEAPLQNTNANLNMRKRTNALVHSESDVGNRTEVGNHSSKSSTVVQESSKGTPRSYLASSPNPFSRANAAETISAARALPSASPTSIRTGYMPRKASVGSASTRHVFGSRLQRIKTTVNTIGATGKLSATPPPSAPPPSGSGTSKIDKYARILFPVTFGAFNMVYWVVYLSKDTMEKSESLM
T18 sequence (P28472 26-473): as the sequence (P28472 26-473) above
T18 sequence (O14764 25-452): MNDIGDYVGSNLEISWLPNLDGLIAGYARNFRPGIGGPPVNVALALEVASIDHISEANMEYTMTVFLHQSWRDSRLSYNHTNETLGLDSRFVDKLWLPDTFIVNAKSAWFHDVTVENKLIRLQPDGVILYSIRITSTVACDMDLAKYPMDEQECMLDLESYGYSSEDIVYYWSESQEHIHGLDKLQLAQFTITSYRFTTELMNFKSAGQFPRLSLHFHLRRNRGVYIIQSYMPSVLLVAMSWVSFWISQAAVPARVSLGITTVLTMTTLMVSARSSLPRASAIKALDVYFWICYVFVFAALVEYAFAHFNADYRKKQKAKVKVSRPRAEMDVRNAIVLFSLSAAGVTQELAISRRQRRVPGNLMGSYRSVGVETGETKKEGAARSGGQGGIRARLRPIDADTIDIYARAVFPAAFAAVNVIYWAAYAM
Protocol: as §1

[20] = biological target: picrotoxin binding site of GABAA receptors; settings: membranes isolated from the cortices of rat brains; Table 1 of WO 2016/061527; read-out: IC50 in the TBPS displacement assay; cited from earlier work
[21] = biological target: T2, α1β2γ2 GABAA receptor; settings: 10 μM neurosteroid, GABA 2 μM (EC20), LTK cells; Table 2 of WO 2016/061527; cited from earlier work
[22] = biological target: T18, α4β3δ GABAA receptor; set-up: expressed in transfected cells; host or cells: CHO cells (transient); settings: 10 μM neurosteroid, GABA 2 μM (EC20), CHO cells; Table 2 of WO 2016/061527; cited from earlier work

T1 sequence (P14867 28-456): as the sequence (P14867 28-456) above
T1 sequence (P18505 26-474): as the sequence (P18505 26-474) above
T1 sequence (P18507 40-475): as the sequence (P18507 40-475) above

SMILES: C[C@@]1(O)CC[C@@]2(C)[C@@H](CC[C@@H]3[C@@H]2CC[C@]2(C)[C@@H](C(=O)Cn4cc(C#N)cn4)CC[C@@H]32)C1 [CV-10155]
- EC50 [1]: 521 nM
- EC50 [2]: 839 nM
- EC50 [3]: 520 nM
- EC50 [4]: 253 nM
- EC50 [5]: 213 nM
- EC50 [6]: 296 nM
- EC50 [7]: 946 nM
- EC50 [8]: 1820 nM
- EC50 [9]: 273 nM
- EC50 [10]: 204 nM
- EC50 [11]: 1330 nM
- EC50 [12]: 762 nM
- EC50 [13]: 359 nM
- EC50 [14]: 1300 nM
- EC50 [15]: 359 nM
- EC50 [16]: 1100 nM
- EC50 [17]: 245 nM
- modulating activity across the GABAA receptor subtypes tested [18]: some level of positive allosteric modulating activity in all of the GABAA receptor subtypes tested
- EC50 ([19]; FLIPR, cells exposed to GABA plus compound, — = value not measurable): 106 nM
- activity on α4β3δ compared with α1β2γ2 GABAA receptors, in words ([19]; data of Example 1): substantially more active on α4β3δ GABAA receptors than on α1β2γ2 GABAA receptors
- EC50 for α4β3δ receptors lower than for α1β2γ2 receptors ([19]; isomerically pure composition, α4β3δ versus α1β2γ2): at least 5 fold

SMILES: C[C@@]1(O)CC[C@@]2(C)[C@H](CC[C@@H]3[C@@H]2CC[C@]2(C)[C@@H](C(=O)Cn4cc(C#N)cn4)CC[C@@H]32)C1 [Compound 10]
- IC50 [20]: < 10 nM

SMILES: C[C@@]1(O)CC[C@@]2(C)[C@@H](CC[C@@H]3[C@@H]2CC[C@]2(C)[C@@H](C(=O)Cn4ccc(C#N)n4)CC[C@@H]32)C1 [Compound 121]
- IC50 [20]: 10 to 50 nM
- efficacy: relative potentiation of GABA-mediated conductance, α1β2γ2 [21]: > 500%
- efficacy: relative potentiation of GABA-mediated conductance, α4β3δ [22]: > 500%

SMILES: C[C@]1(O)CC[C@@]2(C)[C@@H](CC[C@@H]3[C@@H]2CC[C@]2(C)[C@@H](C(=O)Cn4cc(C#N)cn4)CC[C@@H]32)C1 [SPNC-019, reference compound]
- EC50 [13]: 1200 nM
- EC50 [14]: 1810 nM
- EC50 [17]: 1770 nM
- modulating activity across the GABAA receptor subtypes tested [18]: no modulating activity in 15 of the 18 GABAA receptor subtypes tested
